Experimental data as given in the NIST ThermoML archive (doi:10.1016/j.jct.2009.05.005).
± gives the expanded uncertainty stated by the source.

Assay: xn = mol fraction of the nth substance listed
Conditions: 298.15 K, 101 kPa, Liquid, Vibrating tube method

Q: For `CC1(C)[C@@H]2CC[C@@]1(CS(N)(=O)=O)C(=O)C2` [(1S)-(+)-10-camphorsulfonamide] + CCO, which mass density (x1 = 9.665e-05) is on record?
A: The mass density was 785.188 ± 0.15 kg/m3.

Q: And the mass density (x1 = 0.001502)?
A: Its mass density is 787.624 ± 0.15 kg/m3.

Q: And the mass density (x1 = 0.002013)?
A: Its mass density is 788.405 ± 0.15 kg/m3.

Q: With `CCO` [ethanol] + CC1(C)[C@@H]2CC[C@@]1(C)C(=O)C2=O as the molecule, how does the mass density (x2 = 0) read?
A: The mass density was 785.025 ± 0.15 kg/m3.

Q: Which mass density (x2 = 0) does the source give for `CCO` [ethanol] + CC1(C)[C@H]2CC[C@]1(CS(=O)(=O)Cl)C(=O)C2 here?
A: Its mass density is 785.035 ± 0.15 kg/m3.

Q: For `CC1(C)[C@@H]2CC[C@@]1(C)C(=O)C2` [d-camphor] + CCO, which mass density (x1 = 0.001613) is on record?
A: Its mass density is 786.229 ± 0.15 kg/m3.

Q: And the mass density (x1 = 0.003055)?
A: Its mass density is 786.827 ± 0.15 kg/m3.

Q: And the mass density (x1 = 0.009161)?
A: Its mass density is 788.887 ± 0.15 kg/m3.

Q: What about the mass density (x1 = 0.01574) of the same molecule?
A: Its mass density is 789.421 ± 0.15 kg/m3.

Q: With `CCO` [ethanol] + CC1(C)[C@H]2CC[C@]1(C)C(=O)C2 as the molecule, how does the mass density (x2 = 0) read?
A: Its mass density is 785.056 ± 0.15 kg/m3.

Q: With `CCO` [ethanol] + CC1(C)[C@H]2CC[C@]1(CS(=O)(=O)O)C(=O)C2 as the molecule, how does the mass density (x2 = 0) read?
A: Its mass density is 785.024 ± 0.15 kg/m3.

Q: With `CC1(C)C2CCC1(CS(=O)(=O)Cl)C(=O)C2` (stereo not drawn) [d-10-camphorsulfonyl chloride] + CCO as the molecule, how does the mass density (x1 = 0.0006848) read?
A: Its mass density is 786.327 ± 0.15 kg/m3.

Q: And the mass density (x1 = 0.001385)?
A: Its mass density is 787.552 ± 0.15 kg/m3.

Q: And the mass density (x1 = 0.002039)?
A: The mass density was 788.887 ± 0.15 kg/m3.

Q: For `CC1(C)[C@@H]2CC[C@@]1(CS(=O)(=O)O)C(=O)C2` [(1S)-(+)-10-camphorsulfonic acid] + CCO, which mass density (x1 = 0.001067) is on record?
A: Its mass density is 787.039 ± 0.15 kg/m3.

Q: And the mass density (x1 = 0.001496)?
A: Its mass density is 787.971 ± 0.15 kg/m3.

Q: What about the mass density (x1 = 0.002271) of the same molecule?
A: Its mass density is 789.368 ± 0.15 kg/m3.

Q: With `CCO` [ethanol] + CC1(C)[C@H]2CC[C@]1(C)C(=O)C2=O as the molecule, how does the mass density (x2 = 0) read?
A: The mass density was 785.022 ± 0.15 kg/m3.

Q: Which mass density (x2 = 0) does the source give for `CCO` [ethanol] + CC1(C)[C@@H]2CC[C@@]1(C)C(=O)C2 here?
A: Its mass density is 785.055 ± 0.15 kg/m3.

Q: What does the source list for `CC1(C)[C@H]2CC[C@]1(CS(=O)(=O)Cl)C(=O)C2` [(1R)-(-)-10-camphorsulfonyl chloride] + CCO?
A: mass density (x1 = 0.0006848): 786.329 ± 0.15 kg/m3; mass density (x1 = 0.001385): 787.654 ± 0.15 kg/m3; mass density (x1 = 0.002039): 788.885 ± 0.15 kg/m3

Q: Which results are given for `CC1(C)[C@H]2CC[C@]1(C)C(=O)C2=O` [(+)-camphorquinone] + CCO?
A: mass density (x1 = 0.001389): 786.234 ± 0.15 kg/m3; mass density (x1 = 0.00209): 786.827 ± 0.15 kg/m3; mass density (x1 = 0.002792): 787.377 ± 0.15 kg/m3

Q: What does the source list for `CC1(C)[C@H]2CC[C@]1(CS(=O)(=O)O)C(=O)C2` [(1R)-(-)-10-camphorsulfonic acid] + CCO?
A: mass density (x1 = 0.001067): 787.036 ± 0.15 kg/m3; mass density (x1 = 0.001496): 787.969 ± 0.15 kg/m3; mass density (x1 = 0.002271): 789.366 ± 0.15 kg/m3

Q: With `CCO` [ethanol] + CC1(C)C2CCC1(CS(=O)(=O)Cl)C(=O)C2 as the molecule, how does the mass density (x2 = 0) read?
A: Its mass density is 785.033 ± 0.15 kg/m3.

Q: Which mass density (x1 = 0.001613) does the source give for `CC1(C)[C@H]2CC[C@]1(C)C(=O)C2` [(1S)-1,7,7-trimethylbicyclo[2.2.1]heptan-2-one] + CCO here?
A: The mass density was 786.229 ± 0.15 kg/m3.

Q: What about the mass density (x1 = 0.003055) of the same molecule?
A: The mass density was 786.828 ± 0.15 kg/m3.

Q: What about the mass density (x1 = 0.009161) of the same molecule?
A: Its mass density is 788.869 ± 0.15 kg/m3.

Q: What about the mass density (x1 = 0.01574) of the same molecule?
A: The mass density was 789.42 ± 0.15 kg/m3.

Q: Which mass density (x1 = 0.001389) does the source give for `CC1(C)[C@@H]2CC[C@@]1(C)C(=O)C2=O` [(-)-camphorquinone] + CCO here?
A: Its mass density is 786.235 ± 0.15 kg/m3.

Q: What about the mass density (x1 = 0.00209) of the same molecule?
A: Its mass density is 786.827 ± 0.15 kg/m3.

Q: And the mass density (x1 = 0.002792)?
A: Its mass density is 787.379 ± 0.15 kg/m3.

Q: With `CCO` [ethanol] + CC1(C)[C@@H]2CC[C@@]1(CS(=O)(=O)O)C(=O)C2 as the molecule, how does the mass density (x2 = 0) read?
A: Its mass density is 785.026 ± 0.15 kg/m3.

Q: With `CCO` [ethanol] + CC1(C)[C@@H]2CC[C@@]1(CS(N)(=O)=O)C(=O)C2 as the molecule, how does the mass density (x2 = 0) read?
A: The mass density was 785.013 ± 0.15 kg/m3.
